Values of other authors in patent US20110262436A1, “TREATMENT METHOD” (Genentech, Inc., priority 2008, published 2011).

Test system: advanced, treatment-refractory NSCLC
Settings: phase III trial; cited from earlier work

**Q.** For C#Cc1cccc(Nc2ncnc3cc(OCCOC)c(OCCOC)cc23)c1 [erlotinib, N-(3-ethynylphenyl)-6,7-bis(2-methoxyethoxy)-4-quinazolinamine], which “Survival, erlotinib monotherapy” value is on record?
**A.** Its value is “significantly prolonged survival”.
